Consider six compounds from US20120101099A1, “HISTONE DEACETYLASE INHIBITORS” (ANTHEM BIOSCIENCES PRIVATE LIMITED, priority 2009, published 2012).

The subject of one assay is 786-O. Kind of assay: Anti-proliferative activity (GI50). The class given is cell-based. As to conditions: Homo sapiens, 786-0; Table 9; Renal. Here is the method:
(§1) Cells were seeded in a 96-well cell culture plates at a concentration of 10,000 cells per well and incubated at 37° C. in CO2 incubator.
(§2) Twenty-four hours later cells were treated with different concentrations (100, 10, 1, 0.1, and 0.01 μM) of compound dissolved in DMSO and incubated for 48 hours. For To measurement, 24 hours after seeding the cells, 20 μL of 3-(4.5-dimethyl-2- thiazolyl)-2,5-diphenyl-2H-tetrazolium (MTT) solution per well was added to the T0 plate and incubated for 3 hours at 37° C. in a CO2 incubator.
(§3) The plate containing cells and test compounds was treated similarly after 48 hours of incubation. After 3 hours of MTT addition, well contents were aspirated carefully followed by addition of 100 μL DMSO per well. Plates were agitated to ensure dissolution of the formazan crystals in DMSO and absorbance was read at 570 nm (A570). […] From the percentage growths a dose response curve was generated and GI50 values were interpolated from the growth curves.

The subject of the next assay is SK-OV-3. In words: Anti-proliferative activity (GI50). The format is cell-based. The following applies: Homo sapiens, Table 9, Ovary. Here is the method:
as §1, §2, §3

A further assay concerns Hela-229. In words: Anti-proliferative activity (GI50). The class given is cell-based. As to conditions: Homo sapiens, Table 9, Cervix. The protocol: as §1, §2, §3
A further assay relates to NCI-H23. In words: Anti-proliferative activity (GI50). The format is cell-based. The following applies: Homo sapiens, Table 9, Lung. Here is the method: as §1, §2, §3
The next assay has as its system HL-60 (AML) cells. In words: Differentiation assay. The format is cell-based. The following applies: Homo sapiens, 72 h; HL-60 cells, 3 days, H2 DCF-DA oxidation. The protocol: HL-60 (AML) cells were seeded (5×10^4 cells/well) into a 96 well plate and after 24 hrs cells were treated for 3 days with compounds in 8 different concentration (3000, 1000, 300, 100, 30, 10, 3, 1 nM) including control and 60 μM of H2 DCF-DA probe added to the cells. After 2 hours incubation oxidation of H2 DCF-DA was measured.

Another assay deals with T1, CYP 3A4 (Homo sapiens, UniProt P08684).
T1 construct: purchased
In words: Cytochrome-P450 isoforms liability determination. The class given is in vitro ADME. The following applies: fluorescence based kit. Here is the method: To determine the test compound liability towards Human cytochrome 450 (hCYP450) Isoforms fluorescence based screening kits.
Brief procedure: 2× test compounds were prepared by dilution with deionized water. A serial dilution of the test compound was done. 2× solution of known inhibitor were used as a positive control. 40 μL of the 2× solution that is prepared was added to the desired wells. Two replicates were included for every compound. 50 μL of the Master premix (premix of CYP450 Baclosomes, reagents and regenerating system) was dispensed into each well. The plate was incubated for 20 min at room temperature to allow the compounds to interact with the CYP450enzymes. The reaction was started by adding 10 μL of the substrate and NADP^+ mixture. The plate was incubated for the desired amount of time, and then 10 μL of stop reagent was added to each well to quench the reaction. The fluorescence was measured in the fluorescent plate reader at excitation and emission wavelengths as recommended, depending on the substrate used.

The target of the next assay is T2, hERG (Homo sapiens, UniProt Q12809).
T2 construct: expressed in transfected cells; host or cells: CHO cells (membrane preparation)
In words: hERG competitive binding assay (3H-Astemizole). As to conditions: hERG-CHO membrane, 1 nM 3H-Astemizole. Here is the method: The study was carried out to find our cardio safety of the test compounds. Brief procedure: The hERG competitive binding assay performed at a ligand concentration of 1 nM. The test compounds were dissolved in desired volume of 100% DMSO (stock conc. 50 mM). […] The test compound and membrane was pre-incubated for 10 Min at 30° C. 10 μL of ^3H-Astemizole was then added (final concentration of 1 nM), mixed well and incubated additionally for 90 min at 30° C. with mild shaking. At the end of reaction, binding was terminated by rapid filtration onto GF/C glass fiber filter mats, presoaked in 0.3% polyethyleneimine, followed by rapid washing 10 times with ice-cold wash buffer. Captured radiolabel was detected using a liquid scintillation counter. The percent inhibition of the compounds was calculated compared to the vehicle control.

Assay [1] has as its system human HDAC (Hela cells nuclear extract). In words: HDAC activity screening, Hela nuclear extract, Boc-Lys(Ac)-AMC substrate. The following applies: for HDAC % Inhibition (1 μM): 1 μM compound; for HDAC % Inhibition (10 μM): 10 μM compound. The class given is biochemical. The protocol:
To study the human HDAC inhibition the in-house 96 well plate assay have been established using fluorescent substrate (Boc-Lys (Ac)-AMC Substrate). Hela cells nuclear extract have been used as enzyme source.
Assay was performed in 96-well black microplate and total volume of the assay was 100 μL. Hela nuclear extract was diluted HDAC assay buffer (final concentration of 3.0 μg/mL). Enzyme mixture was made of 10 μL of diluted enzyme and 30 μL of HDAC buffer. 40 μl of enzyme mixture followed by 10 μL of test compound (final concentration from 0.01 to 10 μM) or vehicle (control) was added to each well. The plate was pre-incubated at 37° C. for 10 minutes. The HDAC reaction was started by adding 50 μl of HDAC substrate Boc-Lys (Ac)-AMC (Anaspec, Inc Fremont, Calif., USA). The plate was incubated at 37° C. for 45 minutes. The reaction was stopped by adding 50 μL of Trypsin stop solution and plate further incubated at 37° C. for 15 minutes. Measuring the fluorescence at excitation wavelength of 360 nm and emission wavelength of 460 nm monitored the release of AMC. Buffer alone and substrate alone served as blank.

The next assay deals with P21. Kind of assay: p21 induction in HeLa cells (Western Blot). The format is cell-based. The following applies: 24 hrs, 0.03-3.0 μM. Set-up: key: represented by the symbol ‘+’ which indicates the relative extent of modulation; ++: represented by the symbol ‘+’ which indicates the relative extent of modulation; +++: represented by the symbol ‘+’ which indicates the relative extent of modulation; ++++: represented by the symbol ‘+’ which indicates the relative extent of modulation. The protocol: HeLa Cells were seeded at a density of 0.5×10^6 Cells/well into 6 well plates and incubated for 24 hrs. Compounds were tested at 5 different concentrations (0.03, 0.1, 0.3, 1.0, 3.0 μM) including corresponding controls. After 24 hrs cells were lysed and the cellular extract was used for measuring P21 induction by Western Blot using monoclonal Anti-p21 clone CP74 antibody (Sigma).

[2] abbreviates: read-out: IC50 (50% HDAC inhibitory concentration), Table 2, Hela nuclear extract.

Each structure is given as a SMILES string. Where a name gives a salt, the structure may show the parent alone. Read-outs that look alike come from different tables or passages of the source.

T1 sequence (P08684 whole entry): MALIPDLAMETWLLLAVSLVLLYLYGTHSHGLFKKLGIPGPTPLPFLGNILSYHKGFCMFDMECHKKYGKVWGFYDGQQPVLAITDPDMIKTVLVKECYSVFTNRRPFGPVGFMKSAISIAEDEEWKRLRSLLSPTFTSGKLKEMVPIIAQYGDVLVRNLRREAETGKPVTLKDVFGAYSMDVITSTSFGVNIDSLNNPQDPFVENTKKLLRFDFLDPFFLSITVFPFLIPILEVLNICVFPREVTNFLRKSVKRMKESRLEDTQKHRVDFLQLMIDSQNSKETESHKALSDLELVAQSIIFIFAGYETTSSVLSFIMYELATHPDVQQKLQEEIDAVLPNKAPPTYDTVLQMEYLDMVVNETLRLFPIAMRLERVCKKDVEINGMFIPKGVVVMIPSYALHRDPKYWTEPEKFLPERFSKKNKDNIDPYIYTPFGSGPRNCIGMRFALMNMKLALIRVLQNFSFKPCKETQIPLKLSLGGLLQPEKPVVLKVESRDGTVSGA
T2 sequence (Q12809 whole entry): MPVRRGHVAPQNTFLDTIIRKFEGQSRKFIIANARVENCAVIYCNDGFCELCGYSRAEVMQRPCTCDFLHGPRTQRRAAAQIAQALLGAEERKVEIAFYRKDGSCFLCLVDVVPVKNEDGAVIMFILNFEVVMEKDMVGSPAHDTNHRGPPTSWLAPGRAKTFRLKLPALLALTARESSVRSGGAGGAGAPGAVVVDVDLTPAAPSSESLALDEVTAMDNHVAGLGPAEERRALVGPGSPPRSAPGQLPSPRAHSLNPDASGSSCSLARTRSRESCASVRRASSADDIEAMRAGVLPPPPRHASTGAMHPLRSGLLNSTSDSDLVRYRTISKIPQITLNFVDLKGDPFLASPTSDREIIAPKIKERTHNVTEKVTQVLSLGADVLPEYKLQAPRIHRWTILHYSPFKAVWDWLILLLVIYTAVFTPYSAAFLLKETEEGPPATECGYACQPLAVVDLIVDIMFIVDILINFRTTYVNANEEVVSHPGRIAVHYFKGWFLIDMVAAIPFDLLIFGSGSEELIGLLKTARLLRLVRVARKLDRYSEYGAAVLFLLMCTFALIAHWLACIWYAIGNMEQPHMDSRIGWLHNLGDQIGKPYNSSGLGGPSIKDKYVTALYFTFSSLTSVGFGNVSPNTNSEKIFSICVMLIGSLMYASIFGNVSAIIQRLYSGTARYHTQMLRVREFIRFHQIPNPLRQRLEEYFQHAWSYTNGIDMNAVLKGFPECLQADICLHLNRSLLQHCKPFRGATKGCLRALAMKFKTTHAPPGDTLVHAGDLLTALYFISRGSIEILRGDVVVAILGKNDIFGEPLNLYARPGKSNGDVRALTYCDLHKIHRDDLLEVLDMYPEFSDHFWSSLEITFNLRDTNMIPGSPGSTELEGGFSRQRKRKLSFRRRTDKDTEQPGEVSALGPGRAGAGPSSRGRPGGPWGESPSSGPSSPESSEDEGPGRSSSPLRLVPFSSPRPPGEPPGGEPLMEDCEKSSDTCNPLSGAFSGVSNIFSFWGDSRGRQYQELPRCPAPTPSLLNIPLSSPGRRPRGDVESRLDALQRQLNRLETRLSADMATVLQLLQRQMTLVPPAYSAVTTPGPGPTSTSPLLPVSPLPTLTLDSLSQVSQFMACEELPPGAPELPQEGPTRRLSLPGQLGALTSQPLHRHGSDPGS

As for `O=C(NO)c1ccc(Cn2cc(-c3ccc(CN4CCCC4)cc3)nn2)cc1` [Example 8, N-Hydroxy-4-[4-(4-pyrrolidin-1-ylmethyl-phenyl)-[1,2,3]triazol-1-ylmethyl]-benzamide], the GI50 with 786-O is 4100 ± 1400 nM; with SK-OV-3, 1600 ± 100 nM; in the assay on Hela-229 it was 1100 ± 230 nM; in the assay on NCI-H23, 900 ± 250 nM. In the assay with HL-60 (AML) cells, the EC50 amounted to 8240 nM. In addition, the IC50 at CYP 3A4 is 28.3 µM; at hERG, 19.9 µM; in [1] (Table 8, read-out: IC50 (nM) Hela nuclear extract), 3 nM; in [1] (setting [2]), 3 nM. The “HDAC % Inhibition (1 μM)” value in assay [1] (Hela nuclear extract) turned out to be 95%. In assay [1] (Hela nuclear extract), the “HDAC % Inhibition (10 μM)” value amounted to 100%. In addition, in the assay on P21, the P21 induction entry is listed as “+”.
Take `O=C(NO)c1ccc(Cn2cc(-c3ccc(CN4CCOCC4)cc3)nn2)cc1` [Example 9, N-Hydroxy-4-[4-(4-morpholin-4-ylmethyl-phenyl)-[1,2,3]triazol-1-ylmethyl]-benzamide]: the GI50 in the assay on 786-O was found to be 2500 ± 1010 nM; with SK-OV-3 it was 1800 ± 200 nM; with Hela-229, 1400 ± 260 nM; in the assay with NCI-H23, 2300 ± 1140 nM. Further, the IC50 is 43.2 µM against CYP 3A4, above 100 µM on hERG and 57 nM in [1] (setting [2]). Besides, in assay [1] (Hela nuclear extract), the “HDAC % Inhibition (1 μM)” value was 91%. Further, the “HDAC % Inhibition (10 μM)” value in [1] (Hela nuclear extract) is reported as 99%. Besides, the P21 induction result in the assay on P21 is on record as “+”.
Take `O=C(/C=C/c1ccc(Cn2cc(-c3ccc(CN4CCCC4)cc3)nn2)cc1)NO` [Example 16, N-Hydroxy-3-{4-[4-(4-pyrrolidin-1-ylmethyl-phenyl)-[1,2,3]triazol-1-ylmethyl]-phenyl}-acrylamide]: the GI50 in the assay with 786-O is 2650 ± 80 nM; in the assay with SK-OV-3, 40 ± 16 nM; in the assay on Hela-229, 1000 ± 270 nM; in the assay on NCI-H23, 520 ± 40 nM. Moreover, in the assay with HL-60 (AML) cells, a half-maximal effect (EC50) was put at 2880 nM. In addition, the figures for the IC50 (on CYP 3A4; on hERG; in assay [1] (setting [2])) were 53.3 µM, above 100 µM and 4 nM, respectively. The “HDAC % Inhibition (1 μM)” value in assay [1] (Hela nuclear extract) amounted to 99%. In addition, in assay [1] (Hela nuclear extract), the “HDAC % Inhibition (10 μM)” value was 100%. Also, the P21 induction result in the assay on P21 is “+”.
For the compound `CN(C)Cc1ccc(-c2cn(Cc3ccc(/C=C/C(=O)NO)cc3)nn2)cc1` [Example 21], the GI50 turned out to be 2000 ± 1100 nM in the assay with 786-O, 1700 ± 160 nM in the assay on SK-OV-3, 700 ± 470 nM with Hela-229 and 500 ± 240 nM in the assay on NCI-H23. Also, the IC50 was 28.5 µM at CYP 3A4, 42.6 µM at hERG and 8 nM in [1] (setting [2]). In addition, the “HDAC % Inhibition (1 μM)” value in assay [1] (Hela nuclear extract) was 98%. The “HDAC % Inhibition (10 μM)” value in assay [1] (Hela nuclear extract) is 100%.
As to `O=C(/C=C/c1cccc(Cn2cc(-c3ccc(CN4CCOCC4)cc3)nn2)c1)NO` [Example 25, N-Hydroxy-3-{3-[4-(4-morpholin-4-ylmethyl-phenyl)-[1,2,3]triazol-1-ylmethyl]-phenyl}-acrylamide hydrochloride], the GI50 with 786-O amounted to 1500 ± 700 nM; with SK-OV-3, 500 ± 1200 nM; in the assay on Hela-229, 600 ± 380 nM; with NCI-H23, 400 ± 90 nM. The same compound came in with an EC50 with HL-60 (AML) cells of 3830 nM. Moreover, the values for the IC50 (against CYP 3A4; on hERG; in [1] (setting [2])) were 12.6 µM, above 100 µM and 1 nM, respectively. In assay [1] (Hela nuclear extract), the “HDAC % Inhibition (1 μM)” value came to 100%. For the same compound, in assay [1] (Hela nuclear extract), the “HDAC % Inhibition (10 μM)” value amounted to 101%. For the same compound, the P21 induction entry in the assay on P21 is “++”.
On to `O=C(CCCCCCC(=O)Nc1ccccc1)NO` [SAHA, Suberoylanilide Hydroxamic Acid, reference compound], for which the P21 induction result in the assay with P21 is listed as “+++”.
